Assay results published in US8697739B2, “Bicyclic acetyl-CoA carboxylase inhibitors and uses thereof” (Novartis AG, priority 2010, dated 2014).

The molecules below were run against T1, human acetyl-CoA carboxylase 2 (ACC2) (Homo sapiens, UniProt O00763) (assay: Acetyl-CoA carboxylase enzyme assay (malonyl-CoA formation by LC/MS/MS)). Details: recombinant human ACC2 (aa 144-2458); read-out: IC50 ACC2.
T1 construct: The cDNA encoding amino acids 144 to 2458 of human acetyl-CoA carboxylase 2; made in house; host or cells: Sf9 insect cells (baculovirus, pFastBac1)
T1 sequence (O00763 144-2458): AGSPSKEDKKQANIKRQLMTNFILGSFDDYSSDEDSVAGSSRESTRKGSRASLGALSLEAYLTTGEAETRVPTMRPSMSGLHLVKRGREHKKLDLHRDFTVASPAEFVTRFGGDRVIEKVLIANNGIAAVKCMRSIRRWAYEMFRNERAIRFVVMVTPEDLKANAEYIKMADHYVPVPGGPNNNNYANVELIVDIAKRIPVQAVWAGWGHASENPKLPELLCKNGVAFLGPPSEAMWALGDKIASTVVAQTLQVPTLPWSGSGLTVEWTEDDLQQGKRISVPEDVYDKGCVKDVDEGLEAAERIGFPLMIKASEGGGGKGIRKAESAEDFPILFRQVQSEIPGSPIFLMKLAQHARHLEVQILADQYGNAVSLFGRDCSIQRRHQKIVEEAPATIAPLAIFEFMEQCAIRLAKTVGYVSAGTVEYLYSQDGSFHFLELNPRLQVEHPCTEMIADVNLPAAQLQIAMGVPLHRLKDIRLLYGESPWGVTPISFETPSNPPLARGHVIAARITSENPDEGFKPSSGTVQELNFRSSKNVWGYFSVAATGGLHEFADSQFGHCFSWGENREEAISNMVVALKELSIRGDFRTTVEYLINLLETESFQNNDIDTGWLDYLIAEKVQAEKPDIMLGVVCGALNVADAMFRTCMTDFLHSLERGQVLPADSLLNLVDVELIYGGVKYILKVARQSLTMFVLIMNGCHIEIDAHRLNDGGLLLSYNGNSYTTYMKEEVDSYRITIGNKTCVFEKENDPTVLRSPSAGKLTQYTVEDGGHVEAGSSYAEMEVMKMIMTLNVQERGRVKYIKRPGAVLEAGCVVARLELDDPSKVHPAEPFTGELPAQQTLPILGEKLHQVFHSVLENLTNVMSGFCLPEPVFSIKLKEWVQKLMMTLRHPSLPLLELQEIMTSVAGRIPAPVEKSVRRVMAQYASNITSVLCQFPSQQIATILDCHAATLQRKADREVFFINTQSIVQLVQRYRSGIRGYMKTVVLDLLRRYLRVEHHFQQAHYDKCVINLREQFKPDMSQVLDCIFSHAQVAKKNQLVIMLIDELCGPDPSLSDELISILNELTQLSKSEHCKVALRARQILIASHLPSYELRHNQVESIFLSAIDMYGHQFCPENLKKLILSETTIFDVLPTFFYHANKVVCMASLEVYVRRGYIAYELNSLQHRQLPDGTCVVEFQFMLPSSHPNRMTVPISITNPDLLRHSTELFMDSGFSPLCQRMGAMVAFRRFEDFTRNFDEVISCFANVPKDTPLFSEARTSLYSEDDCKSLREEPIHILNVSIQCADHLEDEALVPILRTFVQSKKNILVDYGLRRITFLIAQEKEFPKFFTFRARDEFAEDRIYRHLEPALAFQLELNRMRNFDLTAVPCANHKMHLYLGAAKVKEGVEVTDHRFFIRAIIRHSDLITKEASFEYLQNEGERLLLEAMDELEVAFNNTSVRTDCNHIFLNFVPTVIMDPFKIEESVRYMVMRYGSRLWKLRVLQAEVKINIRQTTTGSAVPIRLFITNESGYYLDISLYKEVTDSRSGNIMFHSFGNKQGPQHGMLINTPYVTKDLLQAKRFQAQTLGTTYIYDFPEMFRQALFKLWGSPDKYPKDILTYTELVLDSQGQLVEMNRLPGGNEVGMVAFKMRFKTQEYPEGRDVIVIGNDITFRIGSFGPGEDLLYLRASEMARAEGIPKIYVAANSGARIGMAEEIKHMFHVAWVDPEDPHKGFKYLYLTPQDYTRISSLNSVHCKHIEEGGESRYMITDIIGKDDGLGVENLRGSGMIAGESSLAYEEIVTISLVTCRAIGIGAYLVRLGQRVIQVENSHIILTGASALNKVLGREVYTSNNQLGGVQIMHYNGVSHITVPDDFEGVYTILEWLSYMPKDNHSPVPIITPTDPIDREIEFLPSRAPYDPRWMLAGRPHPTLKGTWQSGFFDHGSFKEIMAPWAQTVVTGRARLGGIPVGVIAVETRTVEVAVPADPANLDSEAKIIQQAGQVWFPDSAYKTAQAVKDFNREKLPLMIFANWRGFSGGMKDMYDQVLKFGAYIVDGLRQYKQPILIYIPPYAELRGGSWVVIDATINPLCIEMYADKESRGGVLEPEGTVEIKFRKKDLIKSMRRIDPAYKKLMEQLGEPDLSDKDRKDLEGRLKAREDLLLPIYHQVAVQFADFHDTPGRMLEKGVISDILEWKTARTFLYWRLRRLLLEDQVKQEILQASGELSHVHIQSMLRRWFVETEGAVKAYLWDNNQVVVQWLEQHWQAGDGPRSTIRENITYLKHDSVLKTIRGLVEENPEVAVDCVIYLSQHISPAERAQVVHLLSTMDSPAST
Assay type: biochemical
How it was run: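 Malonyl-CoA formation was read by LC/MS/MS MRM against a [13C3]-malonyl-CoA internal standard, after acetic acid quench. The enzyme was baculovirus/Sf9-expressed human ACC2 residues 144–2458, given 15 minutes room-temperature compound preincubation in HEPES pH 7.5 buffer with MgCl2, citrate and DTT. Substrate solution held 50 μM acetyl-CoA, 120 μM ATP and 2 mM KHCO3.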

| Compound | IC50 [nM] |
| --- | --- |
| CC(C)(C)c1nnc([C@H]2CC[C@H](NS(=O)(=O)c3ccc4[nH]c(-c5ccc(Cl)cc5)nc4c3)CC2)o1 [Example 609, N-((1r,4r)-4-(5-tert-butyl-1,3,4-oxadiazol-2-yl)cyclohexyl)-2-(4-chlorophenyl)-1H-benzo[d]imidazole-5-sulfonamide] | 1220 |
| CC(C)(C)c1nnc([C@H]2CC[C@H](NS(=O)(=O)c3ccc4[nH]c(-c5cccc(C(=O)O)c5)nc4c3)CC2)o1 [Example 610, 3-(5-(N-((1r,4r)-4-(5-tert-butyl-1,3,4-oxadiazol-2-yl)cyclohexyl)sulfamoyl)-1H-benzo[d]imidazol-2-yl)benzoic acid] | 1740 |
| C[C@@H](NC(=O)[C@H]1CC[C@H](NS(=O)(=O)c2ccc3[nH]c(-c4ccccc4)nc3c2)CC1)c1ccc(F)cc1 [Example 611, (1r,4R)-N-((R)-1-(4-fluorophenyl)ethyl)-4-(2-phenyl-1H-benzo[d]imidazole-5-sulfonamido)cyclohexanecarboxamide] | < 10 |
| O=C1NCCCC[C@@H]1NC(=O)[C@H]1CC[C@H](NS(=O)(=O)c2ccc3[nH]c(-c4ccccc4)nc3c2)CC1 [Example 612, (1r,4S)-N-((S)-2-oxoazepan-3-yl)-4-(2-phenyl-1H-benzo[d]imidazole-5-sulfonamido)cyclohexanecarboxamide] | 16 |
| Cc1nc2cc(S(=O)(=O)NC3CCC(c4nnc(C(C)C)o4)CC3)ccc2[nH]1 (stereo not shown) [Example 613, N-((1r,4r)-4-(5-isopropyl-1,3,4-oxadiazol-2-yl)cyclohexyl)-2-methyl-1H-benzo[d]imidazole-5-sulfonamide] | 39600 |
| Cc1nc2cc(S(=O)(=O)N[C@H]3CC[C@H](C(=O)N[C@H](C)c4ccccc4)CC3)ccc2[nH]1 [Example 614, (1r,4R)-4-(2-methyl-1H-benzo[d]imidazole-5-sulfonamido)-N-((R)-1-phenylethyl)cyclohexanecarboxamide] | 142 |
| Cc1nc2cc(S(=O)(=O)N[C@H]3CC[C@H](c4nnc(C(C)(C)C)o4)CC3)ccc2[nH]1 [Example 615, N-((1r,4r)-4-(5-tert-butyl-1,3,4-oxadiazol-2-yl)cyclohexyl)-2-methyl-1H-benzo[d]imidazole-5-sulfonamide] | 11500 |
| O=C([C@H]1CC[C@H](NS(=O)(=O)c2ccc3[nH]c(-c4ccccc4)nc3c2)CC1)N1CCc2ccccc2C1 [Example 616, 2-phenyl-N-((1r,4r)-4-(1,2,3,4-tetrahydroisoquinoline-2-carbonyl)cyclohexyl)-1H-benzo[d]imidazole-5-sulfonamide] | 370 |
| O=C([C@H]1CC[C@H](NS(=O)(=O)c2ccc3[nH]c(-c4ccccc4)nc3c2)CC1)N1CCN(c2ccccc2)CC1 [Example 617, 2-phenyl-N-((1r,4r)-4-(4-phenylpiperazine-1-carbonyl)cyclohexyl)-1H-benzo[d]imidazole-5-sulfonamide] | 996 |
| CN(C(=O)[C@H]1CC[C@H](NS(=O)(=O)c2ccc3[nH]c(-c4ccccc4)nc3c2)CC1)C1CCCCC1 [Example 618, (1r,4r)-N-cyclohexyl-N-methyl-4-(2-phenyl-1H-benzo[d]imidazole-5-sulfonamido)cyclohexanecarboxamide] | 80 |
| CN(Cc1ccccc1)C(=O)[C@H]1CC[C@H](NS(=O)(=O)c2ccc3[nH]c(-c4ccccc4)nc3c2)CC1 [Example 619, (1r,4r)-N-benzyl-N-methyl-4-(2-phenyl-1H-benzo[d]imidazole-5-sulfonamido)cyclohexanecarboxamide] | 558 |
| CC1CN(C(=O)[C@H]2CC[C@H](NS(=O)(=O)c3ccc4[nH]c(-c5ccccc5)nc4c3)CC2)CC(C)O1 (stereo partly shown) [Example 620, N-((1r,4r)-4-(2,6-dimethylmorpholine-4-carbonyl)cyclohexyl)-2-phenyl-1H-benzo[d]imidazole-5-sulfonamide] | 58 |
| O=C(NCCO)[C@H]1CC[C@H](NS(=O)(=O)c2ccc3[nH]c(-c4ccccc4)nc3c2)CC1 [Example 621, (1r,4r)-N-(2-hydroxyethyl)-4-(2-phenyl-1H-benzo[d]imidazole-5-sulfonamido)cyclohexanecarboxamide] | 1520 |
